Activity calls are given as the source filed them. No cut-off for these calls is given here.
How the values were obtained:
[1] = tested on: Mus musculus; experiment: (§1) In vivo inhibition of TNSK/TNSK2-medited WNT/beta-catenin signaling in human COLO320DM cells xenografted Prkdc-NOD-SCID CB17 mouse assessed as reduction in active-beta catenin expression in tumor nuclear extract at 10 to 20 mg/kg, ip administered twice daily for 5 days followed by 2 days interval for 2 cycles measured 4 hrs post-last dose by Western blot analysis; assay type: functional, organism-based
[2] = tested on: Mus musculus; experiment: as §1, with “total beta” for “active-beta”; assay type: functional, organism-based
[3] = tested on: COLO 320DM; experiment: Antitumor activity against human COLO320DM cells xenografted in Prkdc-NOD-SCID CB17 mouse assessed as tumor growth inhibition at 20 mg/kg, ip administered twice daily for 5 days followed by 2 days interval for 2 cycles relative to control; assay type: functional; conditions: read-out: TGI
[4] = biological target: Cytochrome P450 2C19 (Homo sapiens, UniProt P33261); experiment: Inhibition of CYP2C19 in human liver microsomes using (S)-mephenytoin as substrate preincubated for 5 mins followed by NADPH addition and measured for 10 to 30 mins by LC-MS/MS analysis; assay type: ADME
Chain of Cytochrome P450 2C19 (P33261 whole entry): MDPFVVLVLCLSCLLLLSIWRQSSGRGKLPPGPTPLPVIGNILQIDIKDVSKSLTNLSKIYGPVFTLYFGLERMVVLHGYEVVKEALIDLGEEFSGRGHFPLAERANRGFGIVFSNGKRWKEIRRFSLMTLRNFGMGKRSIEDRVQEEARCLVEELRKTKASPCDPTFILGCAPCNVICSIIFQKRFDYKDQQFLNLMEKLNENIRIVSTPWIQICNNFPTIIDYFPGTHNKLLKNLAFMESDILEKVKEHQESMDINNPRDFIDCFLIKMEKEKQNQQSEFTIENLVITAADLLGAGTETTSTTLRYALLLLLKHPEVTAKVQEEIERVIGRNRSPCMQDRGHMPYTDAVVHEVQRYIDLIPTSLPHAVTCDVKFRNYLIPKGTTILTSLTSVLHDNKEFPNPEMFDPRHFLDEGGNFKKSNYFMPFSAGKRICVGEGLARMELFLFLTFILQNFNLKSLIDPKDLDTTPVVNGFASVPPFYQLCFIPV

[5] = biological target: Tankyrase 1/2 (Homo sapiens) (UniProt Q9H2K2+O95271); experiment: Inhibition of TNKS/TNKS2-mediated WNT/beta-catenin signaling pathway in human COLO320DM cells assessed as reduction in active beta-catenin expression by measuring beta-catenin level at 0.1 uM measured after 16 hrs by Western blot analysis relative to GADPH; assay type: cell-based
Chain of Tankyrase 1/2 (Homo sapiens) (O95271 whole entry, looked up): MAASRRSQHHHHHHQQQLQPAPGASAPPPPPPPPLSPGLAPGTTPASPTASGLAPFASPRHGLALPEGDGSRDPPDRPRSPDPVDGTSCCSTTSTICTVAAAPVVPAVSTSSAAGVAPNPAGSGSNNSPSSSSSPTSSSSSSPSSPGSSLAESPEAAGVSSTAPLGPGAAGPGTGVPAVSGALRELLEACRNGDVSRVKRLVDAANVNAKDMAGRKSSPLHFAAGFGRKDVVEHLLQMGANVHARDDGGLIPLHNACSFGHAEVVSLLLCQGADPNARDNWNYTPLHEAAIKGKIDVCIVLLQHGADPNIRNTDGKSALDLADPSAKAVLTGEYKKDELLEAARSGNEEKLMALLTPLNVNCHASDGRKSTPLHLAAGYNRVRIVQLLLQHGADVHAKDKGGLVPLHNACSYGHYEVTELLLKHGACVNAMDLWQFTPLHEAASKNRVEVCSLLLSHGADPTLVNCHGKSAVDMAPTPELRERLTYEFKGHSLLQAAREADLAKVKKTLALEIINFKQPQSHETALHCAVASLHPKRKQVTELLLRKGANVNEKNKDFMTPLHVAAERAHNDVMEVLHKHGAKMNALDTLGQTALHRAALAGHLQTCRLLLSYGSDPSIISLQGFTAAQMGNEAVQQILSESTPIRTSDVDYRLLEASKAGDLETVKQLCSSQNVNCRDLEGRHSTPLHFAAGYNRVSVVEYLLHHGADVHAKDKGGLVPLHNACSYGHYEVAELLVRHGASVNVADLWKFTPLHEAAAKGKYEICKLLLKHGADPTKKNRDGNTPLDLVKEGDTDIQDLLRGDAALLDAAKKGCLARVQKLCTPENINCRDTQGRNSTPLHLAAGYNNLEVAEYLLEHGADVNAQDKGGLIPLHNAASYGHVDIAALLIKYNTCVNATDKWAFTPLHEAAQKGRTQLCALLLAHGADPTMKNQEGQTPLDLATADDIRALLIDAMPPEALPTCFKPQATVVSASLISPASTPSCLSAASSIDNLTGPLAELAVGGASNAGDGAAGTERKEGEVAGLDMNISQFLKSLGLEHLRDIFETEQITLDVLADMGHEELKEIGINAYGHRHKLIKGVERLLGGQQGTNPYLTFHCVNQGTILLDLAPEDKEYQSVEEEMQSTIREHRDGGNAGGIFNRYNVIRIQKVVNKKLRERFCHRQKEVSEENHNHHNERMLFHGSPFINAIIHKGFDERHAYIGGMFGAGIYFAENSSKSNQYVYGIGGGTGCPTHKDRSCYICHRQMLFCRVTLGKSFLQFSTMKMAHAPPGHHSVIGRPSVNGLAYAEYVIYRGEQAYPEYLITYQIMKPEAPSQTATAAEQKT
Chain of Tankyrase 1/2 (Homo sapiens) (Q9H2K2 whole entry, looked up): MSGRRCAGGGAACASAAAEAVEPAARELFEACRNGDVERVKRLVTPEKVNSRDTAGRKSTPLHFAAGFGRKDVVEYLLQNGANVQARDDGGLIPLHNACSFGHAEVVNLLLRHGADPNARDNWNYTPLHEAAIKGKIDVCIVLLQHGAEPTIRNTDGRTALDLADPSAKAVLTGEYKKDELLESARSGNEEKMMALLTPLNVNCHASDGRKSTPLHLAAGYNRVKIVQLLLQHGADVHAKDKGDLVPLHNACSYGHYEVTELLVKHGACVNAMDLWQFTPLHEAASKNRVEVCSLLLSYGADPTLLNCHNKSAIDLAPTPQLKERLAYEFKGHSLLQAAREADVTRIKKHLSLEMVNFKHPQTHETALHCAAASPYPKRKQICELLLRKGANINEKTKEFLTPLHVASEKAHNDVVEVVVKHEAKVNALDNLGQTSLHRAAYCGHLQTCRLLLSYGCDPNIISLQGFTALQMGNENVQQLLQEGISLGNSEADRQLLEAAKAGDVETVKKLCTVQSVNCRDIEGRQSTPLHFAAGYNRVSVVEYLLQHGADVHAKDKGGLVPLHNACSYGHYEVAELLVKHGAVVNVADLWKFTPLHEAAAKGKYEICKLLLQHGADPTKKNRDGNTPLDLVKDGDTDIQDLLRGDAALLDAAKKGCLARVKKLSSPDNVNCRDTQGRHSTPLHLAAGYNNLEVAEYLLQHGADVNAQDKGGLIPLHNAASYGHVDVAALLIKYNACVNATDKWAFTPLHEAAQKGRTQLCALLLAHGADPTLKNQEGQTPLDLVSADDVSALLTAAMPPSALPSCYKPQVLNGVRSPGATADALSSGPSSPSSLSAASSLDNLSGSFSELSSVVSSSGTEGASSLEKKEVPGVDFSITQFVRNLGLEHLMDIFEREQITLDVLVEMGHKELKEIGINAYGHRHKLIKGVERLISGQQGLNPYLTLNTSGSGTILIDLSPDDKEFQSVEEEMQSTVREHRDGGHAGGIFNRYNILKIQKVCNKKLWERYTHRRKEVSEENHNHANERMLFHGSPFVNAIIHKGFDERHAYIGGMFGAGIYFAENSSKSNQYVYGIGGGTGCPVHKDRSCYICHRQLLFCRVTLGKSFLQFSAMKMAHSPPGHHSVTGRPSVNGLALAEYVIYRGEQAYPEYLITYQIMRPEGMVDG

[6] = tested on: Mus musculus; experiment: as §1, with “upregulation of AXIN2” for “reduction in active-beta catenin”, “cytosolic” for “nuclear”; assay type: functional, organism-based
[7] = Plasma concentration in human COLO320DM cells xenografted Prkdc-NOD-SCID CB17 mouse at 20 mg/kg, po administered twice daily for 5 days followed by 2 days interval for 2 cycles measured 4 hrs post-last dose; assay type: ADME, organism-based
[8] = AUC (infinity) in Sprague-Dawley rat at 3 mg/kg, po; assay type: ADME, organism-based; set-up: dose 3 mg/kg, time infinity, route oral; conditions: in vivo
[9] = Plasma concentration in ICR mouse at 20 mg/kg, po measured after 4 hrs; assay type: ADME, organism-based
[10] = Oral bioavailability in Sprague-Dawley rat at 3 mg/kg; assay type: ADME, organism-based; conditions: in vivo
[11] = Half life in ICR mouse at 20 mg/kg, po; assay type: ADME, organism-based; conditions: in vivo
[12] = Toxicity in human COLO320DM cells xenografted Prkdc-NOD-SCID CB17 mouse assessed as behavioral changes at 10 to 20 mg/kg, ip administered twice daily for 5 days followed by 2 days interval for 2 cycles measured during compound dosing; assay type: organism-based; conditions: in vivo
[13] = biological target: Cytochrome P450 2D6 (Homo sapiens, UniProt P10635); experiment: Inhibition of CYP2D6 in human liver microsomes using bufuralol as substrate preincubated for 5 mins followed by NADPH addition and measured for 10 to 30 mins by LC-MS/MS analysis; assay type: ADME
Chain of Cytochrome P450 2D6 (P10635 whole entry, the tested form may be a part): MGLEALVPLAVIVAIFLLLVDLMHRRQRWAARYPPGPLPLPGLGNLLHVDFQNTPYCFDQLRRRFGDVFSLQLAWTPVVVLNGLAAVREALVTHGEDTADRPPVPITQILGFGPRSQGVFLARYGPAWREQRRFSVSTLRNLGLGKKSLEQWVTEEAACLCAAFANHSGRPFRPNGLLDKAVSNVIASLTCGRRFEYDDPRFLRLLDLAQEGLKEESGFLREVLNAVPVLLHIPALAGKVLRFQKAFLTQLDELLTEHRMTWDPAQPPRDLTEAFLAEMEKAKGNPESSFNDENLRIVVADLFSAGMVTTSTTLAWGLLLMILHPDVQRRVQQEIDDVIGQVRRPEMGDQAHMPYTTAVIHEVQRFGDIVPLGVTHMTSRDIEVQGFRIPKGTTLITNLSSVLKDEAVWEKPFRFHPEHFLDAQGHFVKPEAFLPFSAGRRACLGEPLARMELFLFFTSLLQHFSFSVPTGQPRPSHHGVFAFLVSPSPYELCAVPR

[14] = biological target: Poly [ADP-ribose] polymerase 2 (Homo sapiens, UniProt Q9UGN5); experiment: Inhibition of human recombinant N-terminal GST-tagged PARP2 (2 to 583 residues) expressed in baculovirus infected Sf9 cells assessed as reduction in auto-PARylation using histone as substrate measured after 45 mins in presence of biotinylated-NAD+ by ELISA
Chain of Poly [ADP-ribose] polymerase 2 (Q9UGN5 whole entry, the tested form may be a part): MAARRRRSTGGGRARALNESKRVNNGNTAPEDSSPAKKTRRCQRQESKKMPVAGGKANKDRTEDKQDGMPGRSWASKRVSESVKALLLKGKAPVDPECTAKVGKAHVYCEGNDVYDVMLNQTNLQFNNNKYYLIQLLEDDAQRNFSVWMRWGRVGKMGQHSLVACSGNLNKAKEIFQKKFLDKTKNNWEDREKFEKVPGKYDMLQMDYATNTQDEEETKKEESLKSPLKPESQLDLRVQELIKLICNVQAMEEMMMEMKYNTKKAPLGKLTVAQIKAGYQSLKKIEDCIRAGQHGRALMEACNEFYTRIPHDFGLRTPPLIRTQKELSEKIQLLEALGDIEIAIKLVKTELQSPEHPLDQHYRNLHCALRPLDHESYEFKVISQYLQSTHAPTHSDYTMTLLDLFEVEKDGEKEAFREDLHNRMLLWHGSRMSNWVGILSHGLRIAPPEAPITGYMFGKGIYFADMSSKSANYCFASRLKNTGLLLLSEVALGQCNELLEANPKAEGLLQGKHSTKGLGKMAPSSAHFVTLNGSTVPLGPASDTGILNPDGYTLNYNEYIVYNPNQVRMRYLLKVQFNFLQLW

[15] = biological target: Poly [ADP-ribose] polymerase 1 (Homo sapiens, UniProt P09874); experiment: Inhibition of recombinant human PARP1 expressed in Escherichia coli assessed as reduction in auto-PARylation using histone as substrate measured after 45 mins in presence of biotinylated-NAD+ by ELISA
Chain of Poly [ADP-ribose] polymerase 1 (P09874 whole entry): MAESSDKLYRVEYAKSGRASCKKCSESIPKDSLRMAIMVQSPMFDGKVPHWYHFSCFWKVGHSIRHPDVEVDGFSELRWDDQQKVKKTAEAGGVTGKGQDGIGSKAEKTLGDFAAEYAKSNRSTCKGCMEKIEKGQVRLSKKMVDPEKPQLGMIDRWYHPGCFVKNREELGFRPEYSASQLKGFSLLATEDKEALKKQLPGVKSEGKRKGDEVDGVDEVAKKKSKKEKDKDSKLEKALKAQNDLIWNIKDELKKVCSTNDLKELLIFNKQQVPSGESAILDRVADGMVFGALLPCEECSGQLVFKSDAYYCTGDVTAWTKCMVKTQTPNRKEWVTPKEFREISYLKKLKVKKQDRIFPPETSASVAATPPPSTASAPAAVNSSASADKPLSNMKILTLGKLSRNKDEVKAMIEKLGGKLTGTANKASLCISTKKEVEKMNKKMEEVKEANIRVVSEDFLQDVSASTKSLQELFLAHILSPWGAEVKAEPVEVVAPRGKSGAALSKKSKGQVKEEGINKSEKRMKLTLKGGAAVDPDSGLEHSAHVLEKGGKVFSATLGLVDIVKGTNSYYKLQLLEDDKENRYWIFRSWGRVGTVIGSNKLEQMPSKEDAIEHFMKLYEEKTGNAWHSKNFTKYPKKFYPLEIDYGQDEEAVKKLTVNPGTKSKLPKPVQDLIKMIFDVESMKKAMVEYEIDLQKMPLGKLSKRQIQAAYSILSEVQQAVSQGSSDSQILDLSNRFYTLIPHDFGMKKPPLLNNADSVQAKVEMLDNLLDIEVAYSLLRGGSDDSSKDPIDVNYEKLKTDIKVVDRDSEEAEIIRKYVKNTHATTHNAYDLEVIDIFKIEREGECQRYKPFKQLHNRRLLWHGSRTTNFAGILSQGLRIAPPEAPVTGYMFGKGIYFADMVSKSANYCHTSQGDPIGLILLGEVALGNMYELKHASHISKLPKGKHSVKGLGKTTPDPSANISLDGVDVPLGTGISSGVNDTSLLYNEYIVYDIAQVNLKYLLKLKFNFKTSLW

[16] = biological target: T1, Cytochrome P450 2C8 (Homo sapiens, UniProt P10632); experiment: Inhibition of CYP2C8 in human liver microsomes using amodiaquine as substrate preincubated for 5 mins followed by NADPH addition and measured for 10 to 30 mins by LC-MS/MS analysis; assay type: ADME
T1 sequence (P10632 whole entry): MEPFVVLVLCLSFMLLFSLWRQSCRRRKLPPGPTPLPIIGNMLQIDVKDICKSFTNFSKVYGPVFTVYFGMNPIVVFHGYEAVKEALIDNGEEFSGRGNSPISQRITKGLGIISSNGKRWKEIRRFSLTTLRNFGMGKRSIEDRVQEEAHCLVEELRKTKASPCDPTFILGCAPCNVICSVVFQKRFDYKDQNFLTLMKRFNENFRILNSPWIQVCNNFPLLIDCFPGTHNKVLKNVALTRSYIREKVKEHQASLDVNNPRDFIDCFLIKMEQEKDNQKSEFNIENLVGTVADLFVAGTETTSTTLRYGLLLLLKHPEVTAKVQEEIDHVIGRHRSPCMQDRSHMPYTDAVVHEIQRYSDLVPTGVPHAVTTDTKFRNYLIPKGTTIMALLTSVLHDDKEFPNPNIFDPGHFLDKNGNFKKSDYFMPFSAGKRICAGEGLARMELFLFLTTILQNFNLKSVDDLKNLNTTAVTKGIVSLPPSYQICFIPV

[17] = Plasma concentration in human COLO320DM cells xenografted Prkdc-NOD-SCID CB17 mouse at 10 mg/kg, po administered twice daily for 5 days followed by 2 days interval for 2 cycles measured 4 hrs post-last dose; assay type: ADME, organism-based
[18] = Tmax in Sprague-Dawley rat at 3 mg/kg, po; assay type: ADME, organism-based; conditions: in vivo
[19] = Toxicity in human COLO320DM cells xenografted Prkdc-NOD-SCID CB17 mouse assessed as loss of body weight at 50 mg/kg, ip administered twice daily for 5 days followed by 2 days interval for 2 cycles; conditions: in vivo
[20] = Volume of distribution at steady state in Sprague-Dawley rat at 3 mg/kg, iv; assay type: ADME, organism-based; conditions: in vivo, read-out: Vdss

With `C[C@@H]1CN(c2cc(F)c3c(c2)N(C)C(=O)C32CCN(c3nc4c(c(=O)[nH]3)CCCN4C)CC2)C[C@H](C)O1` the inhibition [1] was “inactive”, the inhibition [2] was “inactive” and the inhibition in vivo at 20 mg/kg [3] was 71.1%. For the same compound, the IC50 [4] was over 10 µM, the fold change (FC) [5] was 0.39 and the inhibition [6] was “Active”. The concentration at 4 h [7] was 23.3 µM, the AUC(0-inf) [8] was 33 µM·h and the concentration at 4 h [9] was 26.9 µM. For the same compound, the bioavailability [10] was 100%, the half-life [11] was 1.7 h and the Activity [12] was “Non-Toxic”. For the same compound, the IC50 [13] was over 10 µM, the IC50 [14] was 1.24 µM and the IC50 [15] was 18.2 µM. The IC50 [16] was over 10 µM, the concentration at 4 h [17] was 10.1 µM and the Tmax [18] was 0.33 h. The Activity [19] was “Toxic” and the Vd [20] was 1.02 L/kg.

Source: ChEMBL document CHEMBL4342498, “Design and Discovery of an Orally Efficacious Spiroindolinone-Based Tankyrase Inhibitor for the Treatment of Colon Cancer” (J Med Chem, 2020)
